This is an account of results in patent publication US10647680B2, “Urea compound, preparation method therefor and medical use thereof” (Ancureall Pharmaceutical (Shanghai) Co., Ltd., priority 2016, dated 2020).

Where only a bound is given, the exact number is not on record here.

Test [1] concerns MV4-11 (FLT3 ITD+/+ mutant type). Description: In vitro growth inhibition (GI50), MV4-11. The test is classed as cell-based, human. The conditions noted are these: Homo sapiens, MV4-11; Cell lines of leukemia; read-out: GI 50 MV4-11 FLT3 (ITD +/+).
Test [2] concerns MOLM-13 (FLT3 ITD+/− mutant type). The experiment in a line: In vitro growth inhibition (GI50), MOLM-13. The test is classed as cell-based, human. The settings on record: Homo sapiens, MOLM-13; Cell lines of leukemia; read-out: GI 50 MOLM-13 FLT3 (ITD+/−).
The next test relates to RS4; 11 (FLT3 wild type). Description: In vitro growth inhibition (GI50), RS4; 11. The settings on record: Homo sapiens, RS4-11; Cell lines of leukemia; read-out: GI 50 RS4: 11 FLT3 (WT). The format is cell-based, human.
For test [3], the system named is K562 (FLT3 negative expression, positive expression of BCR-ABL fusion protein). Description: In vitro growth inhibition (GI50), K562. The test is classed as cell-based. The conditions noted are these: Homo sapiens, Cell lines of leukemia, read-out: GI 50 K562 BCR-ABL.
For test [4], the system named is RAMOS (positive expression of Brutons tyrosine protein kinase). Description: In vitro growth inhibition (GI50), RAMOS. The test is classed as cell-based. The settings on record: Homo sapiens, Cell lines of leukemia, read-out: GI 50 Ramos BTK.
The subject of the next test is U937 (FLT3 wild-type). Description: In vitro growth inhibition (GI50), U937. The test is classed as cell-based. The settings on record: Homo sapiens, U-937; Cell lines of leukemia; read-out: GI 50 U937 FLT 3(WT).
Test [5] relates to Kasumi-1 (c-Kit N822K mutant type). Description: In vitro growth inhibition (GI50), Kasumi-1. The format is cell-based. The settings on record: Homo sapiens, Cell lines of leukemia, read-out: GI 50 Kasumi-1 Kit (N822K). The procedure, abridged: (§1)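 Cells in RPMI1640 with 10% FBS, seeded at 5–10×10^4 cells/mL, exposed next day to compound at 5,000 nM down to 0.01 nM (2- or 10-fold dilutions, ≤1% solvent) for 3–5 days at 37 °C. CCK8 absorbance at 450 nm, growth rate relative to pre-treatment and solvent controls, GI50 from concentration–growth curve.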

The test system of test [6] is KG-1 (expressing FGFR1OP2-FGFR1 fusion protein). The experiment in a line: In vitro growth inhibition (GI50), KG-1. The format is cell-based. The settings on record: Homo sapiens; Cell lines of leukemia; read-out: GI 50 KG-1 FGFR1OP 2-FGFR1.
The test system of another test is HL-60 (FLT3 wild type). The experiment in a line: In vitro growth inhibition (GI50), HL-60. The test is classed as cell-based. The conditions noted are these: Homo sapiens, Cell lines of leukemia, read-out: GI 50 HL60 FLT3 (WT). The procedure, abridged: as §1
The subject of test [7] is OCI-AML3 (NPMc+ mutant type). The experiment in a line: In vitro growth inhibition (GI50), OCI-AML3. The test is classed as cell-based. The settings on record: Homo sapiens, OCI-AML-3; Cell lines of leukemia; read-out: GI 50 OCI- AML3 NPMc+.

`CCOc1ccc2c(c1)ncn2-c1ccc(NC(=O)Nc2cc(C(C)(C)C)n[nH]2)cc1` [Compound 72, 1-(5-tert-butyl-2H-pyrazol-3-yl)-3-[4-(5-ethoxyl-benzimidazol-1-yl)-phenyl]-urea]: the GI50 in [1] is 0.1 to 1 nM; in test [2] it was 0.1 to 1 nM; in the test with RS4; 11 (FLT3 wild type), > 1000 nM; in test [3] it was > 1000 nM; in test [4], > 1000 nM; with U937 (FLT3 wild-type), > 1000 nM. For the same compound, the GI50 (in test [5]; in test [6]; with HL-60 (FLT3 wild type); in [7]) was > 1000 nM in each case.

With `CCCCCCOc1ccc2c(c1)ncn2-c1ccc(NC(=O)Nc2cc(C(C)(C)C)n[nH]2)cc1` [Compound 73, 1-(5-tert-butyl-2H-pyrazol-3-yl)-3-[4-(5-hexyloxyl-benzimidazol-1-yl)-phenyl]-urea], the GI50 in test [1] was 0.1 to 1 nM; in test [2], 0.1 to 1 nM; in the test with RS4; 11 (FLT3 wild type) it was > 1000 nM; in test [3], > 1000 nM; in [4] it was > 1000 nM; in the test on U937 (FLT3 wild-type), > 1000 nM. For the same compound, the GI50 (in test [5]; in test [6]; in the test with HL-60 (FLT3 wild type); in [7]) was > 1000 nM throughout.

`CC(C)Oc1ccc2c(c1)ncn2-c1ccc(NC(=O)Nc2cc(C(C)(C)C)n[nH]2)cc1` [Compound 74, 1-(5-tert-butyl-2H-pyrazol-3-yl)-3-[4-(5-isopropoxy-benzimidazol-1-yl)-phenyl]-urea]: the GI50 is 0.1 to 1 nM in test [1]; 0.1 to 1 nM in test [2]; > 1000 nM in the test on RS4; 11 (FLT3 wild type); > 1000 nM in test [3]; > 1000 nM in test [4]; > 1000 nM with U937 (FLT3 wild-type). For the same compound, the GI50 (in [5]; in test [6]; in the test with HL-60 (FLT3 wild type); in test [7]) was > 1000 nM each time.

As to `CCC(C)Oc1ccc2c(c1)ncn2-c1ccc(NC(=O)Nc2cc(C(C)(C)C)n[nH]2)cc1` (stereo not shown) [Compound 75, 1-[4-(5-sec-butoxy-benzimidazol-1-yl)-phenyl]-3-(5-tert-butyl-2H-pyrazol-3-yl)-urea], the GI50 in test [1] is 0.1 to 1 nM; in test [2], 0.1 to 1 nM; in the test with RS4; 11 (FLT3 wild type), > 1000 nM; in test [3], > 1000 nM; in test [4], > 1000 nM; with U937 (FLT3 wild-type), > 1000 nM. The GI50 (in [5]; in test [6]; in the test with HL-60 (FLT3 wild type); in [7]) was > 1000 nM each time.

With `CC(C)COc1ccc2c(c1)ncn2-c1ccc(NC(=O)Nc2cc(C(C)(C)C)n[nH]2)cc1` [Compound 76, 1-(5-tert-butyl-2H-pyrazol-3-yl)-3-[4-(5-isobutoxy-benzimidazol-1-yl)-phenyl]-urea], the GI50 in test [1] is 1 to 10 nM; in [2], 1 to 10 nM; in the test on RS4; 11 (FLT3 wild type), > 1000 nM; in test [3], > 1000 nM; in test [4] it was > 1000 nM; in the test on U937 (FLT3 wild-type) it was > 1000 nM. Besides, the GI50 (in test [5]; in test [6]; with HL-60 (FLT3 wild type); in test [7]) was > 1000 nM in each case.

Take `CCOCCOc1ccc2c(c1)ncn2-c1ccc(NC(=O)Nc2cc(C(C)(C)C)n[nH]2)cc1` [Compound 78, 1-(5-tert-butyl-2H-pyrazol-3-yl)-3-{4-[5-(2-ethoxyl-ethoxyl)-benzimidazol-1-yl]-phenyl}-urea]: the GI50 is 0.1 to 1 nM in test [1]; 0.1 to 1 nM in [2]; > 1000 nM in the test with RS4; 11 (FLT3 wild type); > 1000 nM in test [3]; > 1000 nM in [4]; > 1000 nM in the test with U937 (FLT3 wild-type). The GI50 (in test [5]; in test [6]; in the test on HL-60 (FLT3 wild type); in [7]) was > 1000 nM throughout.

As to `COCC(O)COc1ccc2c(c1)ncn2-c1ccc(NC(=O)Nc2cc(C(C)(C)C)n[nH]2)cc1` (stereo not shown) [Compound 80, 1-(5-tert-butyl-2H-pyrazol-3-yl)-3-{4-[5-(2-hydroxy-3-methoxyl-propoxyl)-benzimidazol-1-yl]-phenyl}-urea], the GI50 is 0.1 to 1 nM in test [1]; 0.1 to 1 nM in test [2]; > 1000 nM with RS4; 11 (FLT3 wild type); > 1000 nM in test [3]; > 1000 nM in test [4]; > 1000 nM in the test on U937 (FLT3 wild-type). The GI50 (in test [5]; in test [6]; in the test on HL-60 (FLT3 wild type); in test [7]) was > 1000 nM each time.

Take `CCCCN(CCCC)CCCOc1ccc2c(c1)ncn2-c1ccc(NC(=O)Nc2cc(C(C)(C)C)n[nH]2)cc1` [Compound 82, 1-(5-tert-butyl-2H-pyrazol-3-yl)-3-{4-[5-(3-dibutylaminopropoxy)-benzimidazol-1-yl]-phenyl}-urea]: the GI50 in [1] is 0.1 to 1 nM; in test [2], 0.1 to 1 nM; with RS4; 11 (FLT3 wild type), > 1000 nM; in test [3] it was > 1000 nM; in [4], 100 to 1000 nM; with U937 (FLT3 wild-type), 100 to 1000 nM. In addition, the GI50 was > 1000 nM in [5], > 1000 nM in test [6], 100 to 1000 nM with HL-60 (FLT3 wild type) and > 1000 nM in test [7].

With `CC(C)(C)c1cc(NC(=O)Nc2ccc(-n3cnc4cc(OCC#N)ccc43)cc2)[nH]n1` [Compound 83, 1-(5-tert-butyl-2H-pyrazol-3-yl)-3-[4-(5-cyanomethoxy-benzimidazol-1-yl)-phenyl]-urea], the GI50 in test [1] was 0.1 to 1 nM; in test [2] it was 0.1 to 1 nM; in the test on RS4; 11 (FLT3 wild type), > 1000 nM; in test [3], > 1000 nM; in test [4] it was > 1000 nM; in the test on U937 (FLT3 wild-type), > 1000 nM. For the same compound, the GI50 (in test [5]; in [6]; with HL-60 (FLT3 wild type); in test [7]) was > 1000 nM throughout.

As to `CC(C)(C)c1cc(NC(=O)Nc2ccc(-n3cnc4cc(OC(F)(F)F)ccc43)cc2)[nH]n1` [Compound 84, 1-(5-tert-butyl-2H-pyrazol-3-yl)-3-[4-(5-trifluoromethoxy-benzimidazol-1-yl)-phenyl]-urea], the GI50 in test [1] was 0.1 to 1 nM; in test [2], 0.1 to 1 nM; with RS4; 11 (FLT3 wild type), > 1000 nM; in test [3], > 1000 nM; in test [4], > 1000 nM; in the test on U937 (FLT3 wild-type), > 1000 nM. For the same compound, the GI50 (in test [5]; in test [6]; in the test on HL-60 (FLT3 wild type); in [7]) was > 1000 nM each time.

On to `CC1(COc2ccc3c(c2)ncn3-c2ccc(NC(=O)Nc3cc(C(C)(C)C)n[nH]3)cc2)COC1` [Compound 85, 1-(5-tert-butyl-2H-pyrazol-3-yl)-3-{4-[5-(3-methyl-oxetane-3-ylmethoxy)-benzimidazol-1-yl]-phenyl]urea], for which the GI50 in test [1] was 0.1 to 1 nM; in [2], 0.1 to 1 nM; in the test with RS4; 11 (FLT3 wild type), > 1000 nM; in [3], > 1000 nM; in test [4], > 1000 nM; with U937 (FLT3 wild-type), > 1000 nM. Also, the GI50 (in test [5]; in [6]; in the test with HL-60 (FLT3 wild type); in [7]) was > 1000 nM in each case.

In the case of `CC(C)(C)c1cc(NC(=O)Nc2ccc(-n3cnc4cc(OCC5CCCO5)ccc43)cc2)[nH]n1` (stereo not shown) [Compound 86, 1-(5-tert-butyl-2H-pyrazol-3-yl)-3-{4-[5-(tetrahydrofuran-2-ylmethoxy)-benzimidazol-1-yl]-phenyl}-urea], the GI50 is 0.1 to 1 nM in test [1]; 0.1 to 1 nM in test [2]; > 1000 nM in the test on RS4; 11 (FLT3 wild type); > 1000 nM in [3]; > 1000 nM in test [4]; > 1000 nM in the test with U937 (FLT3 wild-type). Further, the GI50 is > 1000 nM in test [5], > 1000 nM in test [6], 100 to 1000 nM in the test with HL-60 (FLT3 wild type) and > 1000 nM in [7].

For the compound `CC(C)(C)c1cc(NC(=O)Nc2ccc(-n3cnc4cc(OCC5CCCCO5)ccc43)cc2)[nH]n1` (stereo not shown) [Compound 87, 1-(5-tert-butyl-2H-pyrazol-3-yl)-3-{4-[5-(tetrahydro-pyran-2-ylmethoxy)-benzimidazol-1-yl]-phenyl}-urea], the GI50 in test [1] is 0.1 to 1 nM; in test [2], 0.1 to 1 nM; with RS4; 11 (FLT3 wild type), > 1000 nM; in [3], > 1000 nM; in test [4] it was > 1000 nM; in the test with U937 (FLT3 wild-type), > 1000 nM. Further, the GI50 (in [5]; in test [6]; with HL-60 (FLT3 wild type); in [7]) was > 1000 nM each time.
